The values below come from paper doi:10.1101/615575v1 (biorxiv, 2019).

The target of the test is PdtaS (PdtaS-EGFP; mtPdtaS; Rv3220c) (Mycobacterium tuberculosis, UniProt P9WGL5). In words: biochemical.
Chain of PdtaS (PdtaS-EGFP; mtPdtaS; Rv3220c) (P9WGL5 whole entry): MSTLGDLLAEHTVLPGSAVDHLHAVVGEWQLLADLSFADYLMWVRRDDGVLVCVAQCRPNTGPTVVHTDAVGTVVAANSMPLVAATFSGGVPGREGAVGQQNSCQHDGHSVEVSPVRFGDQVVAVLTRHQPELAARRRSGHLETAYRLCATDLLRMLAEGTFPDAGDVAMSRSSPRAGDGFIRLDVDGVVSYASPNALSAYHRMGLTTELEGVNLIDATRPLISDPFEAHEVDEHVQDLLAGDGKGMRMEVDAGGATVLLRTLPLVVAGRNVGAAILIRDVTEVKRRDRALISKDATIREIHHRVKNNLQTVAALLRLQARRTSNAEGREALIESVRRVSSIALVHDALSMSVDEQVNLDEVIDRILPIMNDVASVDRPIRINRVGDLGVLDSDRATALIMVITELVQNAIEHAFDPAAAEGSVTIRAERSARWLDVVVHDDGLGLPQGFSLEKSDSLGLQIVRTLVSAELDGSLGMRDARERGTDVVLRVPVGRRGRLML

As usually defined, the Kd is the equilibrium constant for the complex coming apart. Lower therefore signals tighter binding. As to `Nc1nc2c(ncn2[C@@H]2O[C@@H]3CO[P@](=O)(O)O[C@H]4[C@@H](O)[C@H](n5cnc6c(=O)[nH]c(N)nc65)O[C@@H]4CO[P@](=O)(O)O[C@H]3[C@H]2O)c(=O)[nH]1` [c-di-GMP], the equilibrium dissociation constant (Kd) worked out at 326 ± 107 nM.
